Data on 16 molecules can be found in patent publication US20120115903A1, “Substituted Heteroaromatic Carboxamide and Urea Compounds as Vanilloid Receptor Ligands” (Gruenenthal GmbH, priority 2010, published 2012).

What all share (assay type): cell-based
Assay [1] concerns the target T1, vanilloid receptor 1 (VR1/TRPV1 receptor) (Homo sapiens, UniProt Q8NER1).
T1 construct: expressed in transfected cells; host or cells: CHO K1 cells (ECACC), stably transfected
Briefly: FLIPR Ca2+ influx assay with CHO K1 cells transfected with the human VR1 gene, capsaicin stimulus. The settings on record: Cap = capsaicin (100 nM), Ki from IC50 by Cheng-Prusoff, read-out: Ki (human being) [nM] Cap. How it is done: Furthermore, preference may be given to compounds according to the invention of general formula (I) that cause a 50 percent displacement of capsaicin, which is present at a concentration of 100 nM, in a FLIPR assay with CHO K1 cells which were transfected with the human VR1 gene at a concentration of less than 2,000 nM, preferably less than 1,000 nM, particularly preferably less than 300 nM, most particularly preferably less than 100 nM, even more preferably less than 75 nM, additionally preferably less than 50 nM, most preferably less than 10 nM. In the process, the Ca^2+ influx is quantified in the FLIPR assay with the aid of a Ca^2+-sensitive dye (type Fluo-4, Molecular Probes Europe BV, Leiden, the Netherlands) in a fluorescent imaging plate reader (FLIPR, Molecular Devices, Sunnyvale, USA), as described hereinafter. The agonistic or antagonistic effect of the substances to be tested on the vanilloid receptor 1 (VR1) can also be determined using the following assay. In this assay, the influx of Ca^2+ through the channel is quantified with the aid of a Ca^2+-sensitive dye (type Fluo-4, Molecular Probes Europe BV, Leiden, the Netherlands) in a fluorescent imaging plate reader (FLIPR, Molecular Devices, Sunnyvale, USA). Chinese hamster ovary cells (CHO K1 cells, European Collection of Cell Cultures (ECACC) United Kingdom) are stably transfected with the VR1 gene. For functional testing, these cells are plated out on poly-D-lysine-coated black 96-well plates having a clear base (BD Biosciences, Heidelberg, Germany) at a density of 25,000 cells/well. The cells are incubated overnight at 37° C. and 5% CO2 in a culture medium (Ham's F12 nutrient mixture, 10% by volume of FCS (foetal calf serum), 18 μg/ml of L-proline). The next day the cells are incubated with Fluo-4 (Fluo-4 2 μM, 0.01% by volume of Pluronic F127, Molecular Probes in HBSS (Hank's buffered saline solution), Gibco Invitrogen GmbH, Karlsruhe, Germany) for 30 minutes at 37° C. Subsequently, the plates are washed three times with HBSS buffer and after further incubation for 15 minutes at RT used for Ca^2+ measurement in a FLIPR assay. The Ca^2+-dependent fluorescence is measured before and after the addition of the substances to be tested (λex wavelength=488 nm, λem=540 nm). Quantification is carried out by measuring the highest fluorescence intensity (FC, fluorescence counts) over time. The FLIPR protocol consists of 2 substance additions. First the compounds to be tested (10 μM) are pipetted onto the cells and the Ca^2+ influx is compared with the control (capsaicin 10 μM) (% activation based on the Ca^2+ signal after the addition of 10 μM of capsaicin). After 5 minutes' incubation, 100 nM of capsaicin are applied and the Ca^2+ influx is also determined. Desensitising agonists and antagonists led to suppression of the Ca^2+ influx. The % inhibition is calculated compared to the maximum achievable inhibition with 10 μM of capsaicin. Starting from the percentage displacement caused by different concentrations of the compounds to be tested of general formula I, IC50 inhibitory concentrations which cause a 50-percent displacement of capsaicin were calculated. K, values for the test substances were obtained by conversion by means of the Cheng-Prusoff equation (Cheng, Prusoff; Biochem. Pharmacol. 22, 3099-3108, 1973). The affinity of the compounds according to the invention for the vanilloid receptor 1 (VR1/TRPV1 receptor) was determined as described hereinbefore (pharmacological methods I and II respectively). The compounds according to the invention of the above-indicated formula (I) display outstanding affinity to the VR1/TRPV1 receptor (Table 1.).

Assay [2] has as its target T1, vanilloid receptor 1 (VR1/TRPV1 receptor). Description: Functional test on vanilloid receptor 1, 45° C. stimulus (human). The settings on record: for IC50: read-out: IC50 (human being) [nM], 45° C.
Assay [3] shares this target. Briefly: FLIPR Ca2+ influx assay with CHO K1 cells transfected with the human VR1 gene, capsaicin stimulus. The settings on record: read-out: inhibition (as a percentage), human being, Cap; for inhibition at 5 µM: @ 5 μM compound.

T1 sequence (Q8NER1 whole entry): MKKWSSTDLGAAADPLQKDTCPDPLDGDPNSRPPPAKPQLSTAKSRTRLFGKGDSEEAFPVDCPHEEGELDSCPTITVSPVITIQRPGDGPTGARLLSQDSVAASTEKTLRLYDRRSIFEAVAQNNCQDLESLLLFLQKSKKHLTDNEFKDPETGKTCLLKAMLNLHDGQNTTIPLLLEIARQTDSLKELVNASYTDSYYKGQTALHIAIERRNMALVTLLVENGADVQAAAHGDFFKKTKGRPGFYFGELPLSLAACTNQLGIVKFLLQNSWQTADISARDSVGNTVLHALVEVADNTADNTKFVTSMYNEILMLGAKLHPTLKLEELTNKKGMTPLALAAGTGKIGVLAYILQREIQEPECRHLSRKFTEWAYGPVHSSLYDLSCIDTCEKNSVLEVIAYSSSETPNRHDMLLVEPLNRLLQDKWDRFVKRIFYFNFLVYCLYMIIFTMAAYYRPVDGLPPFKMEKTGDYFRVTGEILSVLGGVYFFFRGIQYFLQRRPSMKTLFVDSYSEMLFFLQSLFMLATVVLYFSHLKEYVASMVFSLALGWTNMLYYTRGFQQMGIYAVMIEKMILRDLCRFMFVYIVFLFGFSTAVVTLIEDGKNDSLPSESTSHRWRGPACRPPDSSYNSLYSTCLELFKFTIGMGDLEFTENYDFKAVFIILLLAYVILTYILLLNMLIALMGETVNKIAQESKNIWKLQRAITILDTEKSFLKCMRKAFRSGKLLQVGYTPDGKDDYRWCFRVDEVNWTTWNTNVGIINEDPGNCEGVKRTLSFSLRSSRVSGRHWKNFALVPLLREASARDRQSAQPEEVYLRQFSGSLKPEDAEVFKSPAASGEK

In general, Ki refers to the dissociation constant of the complex between target and ligand, obtained from inhibition or displacement. Turning to `CC(C(=O)NCc1cc(C(F)(F)F)nn1-c1ccccc1)c1cn(C)c2ccccc12` (centres unmarked) [Example 1, 2-(1-methyl-1H-indol-3-yl)-N-((1-phenyl-3-(trifluoromethyl)-1H-pyrazol-5-yl)methyl)propanamide], the Ki in assay [1] came out at 42.1 nM.

Take `CC(C(=O)NCc1cc(C(C)(C)C)nn1-c1cccc(Cl)c1)c1cn(C)c2ccccc12` (centres unmarked) [Example 2, N-((3-tert-butyl-1-(3-chlorophenyl)-1H-pyrazol-5-yl)methyl)-2-(1-methyl-1H-indol-3-yl)propanamide]: the inhibition constant (Ki) in assay [1] was 33.6 nM.

Regarding `COc1cccc(-n2nc(C(F)(F)F)cc2CNC(=O)C(C)c2cn(C)c3ccccc23)c1` (centres unmarked) [Example 3, N-((1-(3-methoxyphenyl)-3-(trifluoromethyl)-1H-pyrazol-5-yl)methyl)-2-(1-methyl-1H-indol-3-yl)propanamide], the Ki in assay [1] stood at 49.8 nM.

On to `CC(C(=O)NCc1cc(C(C)(C)C)nn1-c1ccccn1)c1cn(C)c2ccc(O)cc12` (centres unmarked) [Example 6, N-((3-tert-butyl-1-(pyridin-2-yl)-1H-pyrazol-5-yl)methyl)-2-(5-hydroxy-1-methyl-1H-indol-3-yl)propanamide], for which, in assay [1], the Ki worked out at 56.8 nM.

The inhibition is how much of the control response was suppressed. With `Cc1c(C(F)(F)F)nn(-c2cccc(Cl)c2)c1CNC(=O)C(C)c1cn(C)c2ccc(O)cc12` (centres unmarked) [Example 7, N-((1-(3-chlorophenyl)-4-methyl-3-(trifluoromethyl)-1H-pyrazol-5-yl)methyl)-2-(5-hydroxy-1-methyl-1H-indol-3-yl)propanamide], the inhibition at 2.5 µM in assay [2] (@ 2.5 μM compound, read-out: inhibition (as a percentage), human being, 45° C.) is 36%. In assay [1], the Ki turned out to be 0.4 nM.

The IC50 is the concentration needed to halve the response being measured. Turning to `CC(C(=O)NCc1cc(C(F)(F)F)nn1-c1cccc(Cl)c1)c1cn(C)c2ccccc12` (centres unmarked) [Example 8, N-((1-(3-chlorophenyl)-3-(trifluoromethyl)-1H-pyrazol-5-yl)methyl)-2-(1-methyl-1H-indol-3-yl)propanamide], the IC50 in assay [2] came to 924 nM. Further, the Ki in assay [1] worked out at 6.4 nM.

As to `Cn1cc(CC(=O)NCc2cc(C(F)(F)F)nn2-c2cccc(Cl)c2)c2cc(O)ccc21` [Example 9, N-((1-(3-chlorophenyl)-3-(trifluoromethyl)-1H-pyrazol-5-yl)methyl)-2-(5-hydroxy-1-methyl-1H-indol-3-yl)acetamide], the IC50 in assay [2] stood at 1730 nM. Besides, the inhibition constant Ki in assay [1] came to 0.25 nM.

Consider `CC(C(=O)NCc1cc(C(C)(C)C)nn1-c1ccc(F)c(Cl)c1)c1cn(C)c2ccc(O)cc12` (centres unmarked) [Example 11, N-((3-tert-butyl-1-(3-chloro-4-fluorophenyl)-1H-pyrazol-5-yl)methyl)-2-(5-hydroxy-1-methyl-1H-indol-3-yl)propanamide], for which the IC50 in assay [2] came out at 39 nM. In addition, in assay [1], the inhibition constant Ki came to 0.7 nM.

As for `CC(C(=O)NCc1cc(C2CC2)nn1-c1cccc(Cl)c1)c1cn(C)c2ccc(O)cc12` (centres unmarked) [Example 12, N-((1-(3-chlorophenyl)-3-cyclopropyl-1H-pyrazol-5-yl)methyl)-2-(5-hydroxy-1-methyl-1H-indol-3-yl)propanamide], in assay [2], the IC50 is 95.8 nM. For the same molecule, in assay [1], the Ki was determined as 1.1 nM.

Turning to `COc1ccc2c(c1)c(CC(=O)NCc1cc(C(C)(C)C)nn1-c1cccc(Cl)c1)cn2C` [Example 13, N-((3-tert-butyl-1-(3-chlorophenyl)-1H-pyrazol-5-yl)methyl)-2-(5-methoxy-1-methyl-1H-indol-3-yl)acetamide], the Ki in assay [1] was found to be 33.3 nM.

For `COc1ccc2c(c1)c(C(C)C(=O)NCc1cc(C(C)(C)C)nn1-c1cccc(Cl)c1)cn2C` (centres unmarked) [Example 14, N-((3-tert-butyl-1-(3-chlorophenyl)-1H-pyrazol-5-yl)methyl)-2-(5-methoxy-1-methyl-1H-indol-3-yl)propanamide], in assay [1], the Ki was found to be 48.1 nM.

For `CC(C(=O)NCc1cc(C(F)(F)F)nn1CC1CC1)c1cn(C)c2ccccc12` (centres unmarked) [Example 15, N-((1-(cyclopropylmethyl)-3-(trifluoromethyl)-1H-pyrazol-5-yl)methyl)-2-(1-methyl-1H-indol-3-yl)propanamide], the inhibition at 5 µM in assay [3] was found to be 14%.

As to `O=C(NCc1cc(C(F)(F)F)nn1-c1cccc(Cl)c1)Nc1n[nH]c2ccccc12` [Example 16, 1-((1-(3-chlorophenyl)-3-(trifluoromethyl)-1H-pyrazol-5-yl)methyl)-3-(1H-indazol-3-yl)urea], the inhibition at 5 µM in assay [3] turned out to be 24%.

`Cn1nc(NC(=O)NCc2cc(C(F)(F)F)nn2-c2cccc(Cl)c2)c2cccnc21` [Example 17, 1-((1-(3-chlorophenyl)-3-(trifluoromethyl)-1H-pyrazol-5-yl)methyl)-3-(1-methyl-1H-pyrazolo[3,4-b]pyridin-3-yl)urea]: the inhibition at 1 µM in assay [3] (@ 1 μM compound) worked out at 4%. The inhibition at 5 µM in assay [3] was found to be 30%.

As to `Cn1cc(CC(=O)NCc2nc(C(C)(C)C)nn2-c2cccc(Cl)c2)c2cc(O)ccc21` [Example 18, N-((3-tert-butyl-1-(3-chlorophenyl)-1H-1,2,4-triazol-5-yl)methyl)-2-(5-hydroxy-1-methyl-1H-indol-3-yl)acetamide], in assay [1], the inhibition constant (Ki) was 70.9 nM.

Take “N-((1-cyclopentyl-3-(trifluoromethyl)-1H-pyrazol-5-yl)methyl)-2-(5-hydroxy-1-methyl-1H-indol-3-yl)propanamide [Example 4]”: the IC50 in assay [2] worked out at 92 nM. In assay [1], the inhibition constant Ki is 4.8 nM.
